Measured values as given in patent publication US20240360194A1, “New Peptides as Potent and Selective GIP Receptor Agonists” (Sanofi, priority 2021, published 2024).
pIC50: −log10 of the molar value. Converted amounts (≈) assume the structure as drawn. Where two headings read alike, the source gives them in different places.

Columns and labels:
[1] = Chemical stability assessment (UHPLC-UV purity loss on storage in solution); format: physicochemical
Procedure, shortened: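 Peptides dissolved at ~300 μM (purity-corrected) in 20 mM phosphate pH 7.4, or 8 mM phosphate pH 7.4 with 14 mg/ml propylene glycol and 5.5 mg/ml phenol; filtered, stored 28 days at 5 and 40 °C. Supernatant analysed by UHPLC-UV; stability expressed as relative purity loss.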

[2] = Solubility assessment (UHPLC-UV of supernatant, target 10 mg/ml); format: physicochemical; settings: for solubility at 24 h: read-out: Soluble amount
Procedure, shortened: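 Peptides at 10 mg/ml (purity-corrected) in 100 mM phosphate pH 7.4, optionally with 2.7 mg/ml m-cresol; gentle agitation 1 h, then 5° C. overnight (24 h). Supernatant after 15 min centrifugation at 2500 RCF quantified by UHPLC-UV, with sequence-based extinction coefficients.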

[3] = molecular target: T1, human GIP receptor (hGIPR) (Homo sapiens, UniProt P48546); assay: Binding assay, displacement of [125I]GIP from HEK-293 membranes over-expressing GIPR (SPA); settings: [125I]GIP displacement
T1 sequence (P48546 22-466): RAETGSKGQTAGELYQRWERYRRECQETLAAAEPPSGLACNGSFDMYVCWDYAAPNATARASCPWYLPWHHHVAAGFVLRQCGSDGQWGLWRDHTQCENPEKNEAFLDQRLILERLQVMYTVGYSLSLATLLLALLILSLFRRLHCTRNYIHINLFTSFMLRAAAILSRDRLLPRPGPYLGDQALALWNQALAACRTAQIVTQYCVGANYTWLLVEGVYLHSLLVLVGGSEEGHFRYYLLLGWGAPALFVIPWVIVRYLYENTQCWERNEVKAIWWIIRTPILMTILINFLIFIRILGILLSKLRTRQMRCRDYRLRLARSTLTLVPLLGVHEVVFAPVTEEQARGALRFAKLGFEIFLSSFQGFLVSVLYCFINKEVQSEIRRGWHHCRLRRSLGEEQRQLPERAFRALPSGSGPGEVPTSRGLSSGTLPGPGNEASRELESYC
Procedure, shortened: (§1)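 Membranes from HEK-293 cells over-expressing human GIPR or GLP-1R, isolated by homogenising, sonicating and ultracentrifuging at 100000×g into HEPES/EDTA/NaCl buffer with protease inhibitors, were used for binding.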

[4] = molecular target: human GLP-1 receptor (hGLP-1R) (Homo sapiens, UniProt P43220); assay: Binding assay, displacement of [125I]GLP-1 from HEK-293 membranes over-expressing GLP-1R (SPA); settings: [125I]GLP-1 displacement
Sequence of human GLP-1 receptor (hGLP-1R) (P43220 24-463): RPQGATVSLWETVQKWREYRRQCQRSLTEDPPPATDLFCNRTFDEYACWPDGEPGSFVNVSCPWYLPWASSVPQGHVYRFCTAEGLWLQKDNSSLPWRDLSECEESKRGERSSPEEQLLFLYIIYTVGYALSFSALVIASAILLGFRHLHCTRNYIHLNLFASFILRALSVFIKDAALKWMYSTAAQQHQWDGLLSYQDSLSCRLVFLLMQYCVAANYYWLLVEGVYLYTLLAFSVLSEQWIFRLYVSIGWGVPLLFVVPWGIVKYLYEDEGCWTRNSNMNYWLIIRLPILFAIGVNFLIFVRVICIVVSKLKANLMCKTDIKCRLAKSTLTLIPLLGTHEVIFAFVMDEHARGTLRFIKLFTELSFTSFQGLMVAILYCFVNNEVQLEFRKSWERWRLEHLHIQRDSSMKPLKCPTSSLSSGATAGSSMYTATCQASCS
Procedure, shortened: as §1

[5] = ThT assay for the assessment of physical stability (fibrillation); format: physicochemical; settings: ThT buffer system A: 100 mM phosphate buffer pH 7.4; 3 mg/ml, 37° C., shaking
Description: Low physical stability of a peptide solution may lead to amyloid fibril formation, which is observed as well-ordered, thread-like macromolecular structures in the sample, which eventually may lead to gel formation. Thioflavin T (ThT) is widely used to visualize and quantify the presence of misfolded protein aggregates [Biancalana et al., Biochim. Biophys. Acta 2010, 1804(7), 1405]. […] Enzymol. 1999, 309, 274]. The time course for fibril formation often follows the characteristic shape of a sigmoidal curve and can be separated into three regions: a lag phase, a fast growth phase, and a plateau phase. The typical fibril formation process starts with the lag phase in which the amount of partially folded peptide turned into fibrils is not significant enough to be detected. The lag-time corresponds to the time the critical mass of the nucleus is built. Afterwards, a drastic elongation phase follows, and fibril concentration increases rapidly. Investigations were carried out to determine fibrillation tendencies under stress conditions by shaking at 37° C. within Fluoroskan Ascent FL or Fluoroskan Ascent. For the tests in Fluoroskan Ascent (FL), 200 μl sample were placed into a 96-well mictrotiter plate PS, flat bottom, Greiner Fluotrac No. 655076. Plates were sealed with Scotch Tape (Qiagen). Samples were stressed by continuous cycles of 10 sec shaking at 960 rpm and 50 sec rest period at 37° C. The kinetic was monitored by measuring fluorescence intensity every 20 min. Peptides were diluted in a buffer system to a final concentration of 3 mg/ml. 20 μl of a 10.1 mM ThT solution in H2O were added to 2 ml of peptide solution to receive a final concentration of 100 μM ThT. For each sample eight replicates were tested. • ThT buffer system A) 100 mM phosphate buffer pH 7.4 • ThT buffer system B) 100 mM phosphate buffer pH 7.4, 2.7 mg/ml m-cresol Lag time in hours (h) in Thioflavin T (ThT) assay of peptide samples was determined in ThT buffer system A as described in Methods.

[6] = Chemical stability buffer system A: 20 mM phosphate buffer pH 7.4, ~300 μM
[7] = 100 mM phosphate buffer pH 7.4 (solubility buffer system A), pH 7.4, Solubility buffer system A: 100 mM phosphate buffer pH 7.4
[8] = pH 7.4, Solubility buffer system C: 100 mM phosphate buffer pH 7.4, 2.7 mg/ml m-cresol

SMILES	Relative purity loss over 28 days at 40° C. [1, 6] [%]	solubility at 24 h [2, 7] [µg/mL]	solubility at 24 h [2, 8] [µg/mL]	pIC50 [3]	pIC50 [4]	Increase in FI [5]	Lag time before increase [5] [h]	Soluble amount ([2]; pH 7.4) [mg/mL]	solubility ([2]; pH 7.4, Soluble amount) [µg/mL]	Relative purity loss over 28 days at 40° C. ([1]; Chemical stability buffer system B: 8 mM phosphate buffer pH 7.4, 14 mg/ml propylene glycol, 5.5 mg/ml phenol) [%]
CC[C@H](C)[C@H](NC(=O)[C@H](Cc1ccccc1)NC(=O)[C@H](CCC(=O)O)NC(=O)[C@H](CCC(=O)O)NC(=O)[C@H](CCC(N)=O)NC(=O)[C@H](Cc1c[nH]cn1)NC(=O)[C@@H](NC(=O)[C@H](CCCNC(=N)N)NC(=O)[C@H](CC(=O)O)NC(=O)[C@H](CCCCNC(=O)COCCOCCNC(=O)COCCOCCNC(=O)CC[C@H](NC(=O)CCCCCCCCCCCCCCCCC(=O)O)C(=O)O)NC(=O)C(C)(C)NC(=O)[C@@H](NC(=O)[C@H](CO)NC(=O)[C@H](CC(C)C)NC(=O)[C@H](CC(=O)O)NC(=O)[C@H](CO)NC(=O)[C@@H](NC(=O)[C@H](Cc1ccccc1)NC(=O)[C@@H](NC(=O)CNC(=O)[C@H](CCC(=O)O)NC(=O)C(C)(C)NC(=O)[C@@H](N)Cc1ccc(O)cc1)[C@@H](C)O)[C@@H](C)CC)[C@@H](C)CC)[C@@H](C)CC)C(=O)N[C@@H](CCC(=O)O)C(=O)N[C@@H](Cc1c[nH]c2ccccc12)C(=O)N[C@@H](CC(C)C)C(=O)N[C@@H](CC(C)C)C(=O)N[C@@H](C)C(=O)N[C@@H](CCC(N)=O)C(=O)N[C@@H](CCCNC(=N)N)C(=O)NCC(N)=O [SEQ ID NO: 4, H2N-Y-Aib-E-G-T-F-I-S-D-L-S-I-Aib-K[{AEEA}2-gGlu-C18OH]-D-R-I-H-Q-E-E-F-I-E-W-L-L-A-Q-R-G-NH2]	5.1	> 30000	> 8700	8.82	6.51	no	>45	–	–	–
CC[C@H](C)[C@H](NC(=O)[C@H](CCCNC(=N)N)NC(=O)[C@H](CC(=O)O)NC(=O)[C@H](CCCCNC(=O)COCCOCCNC(=O)COCCOCCNC(=O)CC[C@H](NC(=O)CCCCCCCCCCCCCCCCC(=O)O)C(=O)O)NC(=O)C(C)(C)NC(=O)[C@@H](NC(=O)[C@H](CO)NC(=O)[C@H](CC(C)C)NC(=O)[C@H](CC(=O)O)NC(=O)[C@H](CO)NC(=O)[C@@H](NC(=O)[C@H](Cc1ccccc1)NC(=O)[C@@H](NC(=O)CNC(=O)[C@H](CCC(=O)O)NC(=O)C(C)(C)NC(=O)[C@@H](N)Cc1ccc(O)cc1)[C@@H](C)O)[C@@H](C)CC)[C@@H](C)CC)C(=O)N[C@@H](Cc1c[nH]cn1)C(=O)N[C@@H](CCC(N)=O)C(=O)NC(C)(C)C(=O)N[C@@H](CCC(=O)O)C(=O)N[C@@H](Cc1ccccc1)C(=O)N[C@H](C(=O)N[C@@H](CCC(=O)O)C(=O)N[C@@H](Cc1c[nH]c2ccccc12)C(=O)N[C@@H](CC(C)C)C(=O)N[C@@H](CC(C)C)C(=O)N[C@@H](C)C(=O)N[C@@H](CCC(N)=O)C(=O)N[C@@H](CCC(=O)O)C(=O)NCC(N)=O)[C@@H](C)CC [SEQ ID NO: 12, H2N-Y-Aib-E-G-T-F-I-S-D-L-S-I-Aib-K[{AEEA}2-gGlu-C18OH]-D-R-I-H-Q-Aib-E-F-I-E-W-L-L-A-Q-E-G-NH2]	7.4	> 9500	7600 (≈ 1760 µM)	9.30	6.88	no	>45	–	–	–
CC[C@H](C)[C@H](NC(=O)[C@H](Cc1ccccc1)NC(=O)[C@H](CCC(=O)O)NC(=O)[C@H](CCC(=O)O)NC(=O)[C@H](CCC(N)=O)NC(=O)[C@H](Cc1c[nH]cn1)NC(=O)[C@@H](NC(=O)[C@H](CCCNC(=N)N)NC(=O)[C@H](CC(=O)O)NC(=O)[C@H](CCCCNC(=O)COCCOCCNC(=O)COCCOCCNC(=O)CC[C@H](NC(=O)CCCCCCCCCCCCCCCCC(=O)O)C(=O)O)NC(=O)C(C)(C)NC(=O)[C@@H](NC(=O)[C@H](CO)NC(=O)[C@H](CC(C)C)NC(=O)[C@H](CC(=O)O)NC(=O)[C@H](CO)NC(=O)[C@@H](NC(=O)[C@@](C)(CC)NC(=O)[C@@H](NC(=O)CNC(=O)[C@H](CCC(=O)O)NC(=O)C(C)(C)NC(=O)[C@@H](N)Cc1ccc(O)cc1)[C@@H](C)O)[C@@H](C)CC)[C@@H](C)CC)[C@@H](C)CC)C(=O)N[C@@H](CCC(=O)O)C(=O)N[C@@H](Cc1c[nH]c2ccccc12)C(=O)N[C@@H](CC(C)C)C(=O)N[C@@H](CC(C)C)C(=O)N[C@@H](C)C(=O)N[C@@H](CCC(N)=O)C(=O)N[C@@H](CCCNC(=N)N)C(=O)NCC(N)=O [SEQ ID NO: 15, H2N-Y-Aib-E-G-T-Iva-I-S-D-L-S-I-Aib-K[{AEEA}2-gGlu-C18OH]-D-R-I-H-Q-E-E-F-I-E-W-L-L-A-Q-R-G-NH2]	6.5	–	–	9.70	6.31	no	>45	8.5	> 9500	–
CC[C@H](C)[C@H](NC(=O)[C@H](CCCNC(=N)N)NC(=O)[C@H](CC(=O)O)NC(=O)[C@H](CCCCNC(=O)COCCOCCNC(=O)COCCOCCNC(=O)CC[C@H](NC(=O)CCCCCCCCCCCCCCCCC(=O)O)C(=O)O)NC(=O)C(C)(C)NC(=O)[C@@H](NC(=O)[C@H](CO)NC(=O)[C@H](CC(C)C)NC(=O)[C@H](CC(=O)O)NC(=O)[C@H](CO)NC(=O)[C@@H](NC(=O)[C@H](Cc1ccccc1)NC(=O)[C@@H](NC(=O)CNC(=O)[C@H](CCC(=O)O)NC(=O)C(C)(C)NC(=O)[C@@H](N)Cc1ccc(O)cc1)[C@@H](C)O)[C@@H](C)CC)[C@@H](C)CC)C(=O)N[C@@H](Cc1c[nH]cn1)C(=O)N[C@@H](CCC(N)=O)C(=O)NC(C)(C)C(=O)N[C@@H](CCC(=O)O)C(=O)N[C@@H](Cc1ccccc1)C(=O)N[C@H](C(=O)N[C@@H](CCC(=O)O)C(=O)N[C@@H](Cc1c[nH]c2ccccc12)C(=O)N[C@@H](CC(C)C)C(=O)N[C@@H](CC(C)C)C(=O)N[C@@H](C)C(=O)N[C@@H](CCC(N)=O)C(=O)N[C@@H](CCCNC(=N)N)C(=O)NCC(N)=O)[C@@H](C)CC [SEQ ID NO: 6, H2N-Y-Aib-E-G-T-F-I-S-D-L-S-I-Aib-K[{AEEA}2-gGlu-C18OH]-D-R-I-H-Q-Aib-E-F-I-E-W-L-L-A-Q-R-G-NH2]	5.6	> 9000	1800 (≈ 415 µM)	9.30	6.81	no	>45	–	–	5.9
